Measured values as given in PubChem BioAssay (NCI).
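Exposure lasted 48 hours, with cells grown in 96-well plates and compounds tested at five concentrations. GI50: concentration for 50% inhibition of growth. At the TGI there is no net growth.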

How the values were obtained:
Experiment in all cases: NCI-60 cell line screen, 48 h
786-0 renal = tested on: 786-0 renal
A498 renal = tested on: A498 renal
A549 NSCLC = tested on: A549 NSCLC
ACHN renal = tested on: ACHN renal
CAKI-1 renal = tested on: CAKI-1 renal
CCRF-CEM leukemia = tested on: CCRF-CEM leukemia
COLO 205 colon = tested on: COLO 205 colon
DU-145 prostate = tested on: DU-145 prostate
EKVX NSCLC = tested on: EKVX NSCLC
HCC-2998 colon = tested on: HCC-2998 colon
HCT-116 colon = tested on: HCT-116 colon
HCT-15 colon = tested on: HCT-15 colon
HL-60(TB) leukemia = tested on: HL-60(TB) leukemia
HOP-62 NSCLC = tested on: HOP-62 NSCLC
HOP-92 NSCLC = tested on: HOP-92 NSCLC
HS 578T breast = tested on: HS 578T breast
HT29 colon = tested on: HT29 colon
IGROV1 ovarian = tested on: IGROV1 ovarian
K-562 leukemia = tested on: K-562 leukemia
KM12 colon = tested on: KM12 colon
LOX IMVI melanoma = tested on: LOX IMVI melanoma
M14 melanoma = tested on: M14 melanoma
MALME-3M melanoma = tested on: MALME-3M melanoma
MCF7 breast = tested on: MCF7 breast
MDA-MB-231 breast = tested on: MDA-MB-231 breast
MDA-MB-435 = tested on: MDA-MB-435
MDA-N = tested on: MDA-N
MOLT-4 leukemia = tested on: MOLT-4 leukemia
NCI-H226 lung = tested on: NCI-H226 lung
NCI-H23 lung = tested on: NCI-H23 lung
NCI-H460 lung = tested on: NCI-H460 lung
NCI-H522 lung = tested on: NCI-H522 lung
NCI/ADR-RES ovarian = tested on: NCI/ADR-RES ovarian
OVCAR-3 ovarian = tested on: OVCAR-3 ovarian
OVCAR-4 ovarian = tested on: OVCAR-4 ovarian
OVCAR-5 ovarian = tested on: OVCAR-5 ovarian
OVCAR-8 ovarian = tested on: OVCAR-8 ovarian
RPMI-8226 leukemia = tested on: RPMI-8226 leukemia
RXF 393 renal = tested on: RXF 393 renal
SF-268 CNS = tested on: SF-268 CNS
SF-295 CNS = tested on: SF-295 CNS
SF-539 CNS = tested on: SF-539 CNS
SK-MEL-2 melanoma = tested on: SK-MEL-2 melanoma
SK-MEL-28 melanoma = tested on: SK-MEL-28 melanoma
SK-MEL-5 melanoma = tested on: SK-MEL-5 melanoma
SK-OV-3 ovarian = tested on: SK-OV-3 ovarian
SN12C renal = tested on: SN12C renal
SNB-19 CNS = tested on: SNB-19 CNS
SNB-75 CNS = tested on: SNB-75 CNS
SR leukemia = tested on: SR leukemia
SW-620 colon = tested on: SW-620 colon
T-47D breast = tested on: T-47D breast
TK-10 renal = tested on: TK-10 renal
U251 CNS = tested on: U251 CNS
UACC-257 melanoma = tested on: UACC-257 melanoma
UACC-62 melanoma = tested on: UACC-62 melanoma
UO-31 renal = tested on: UO-31 renal
BT-549 breast = tested on: BT-549 breast
PC-3 prostate = tested on: PC-3 prostate

COC(=O)[C@@H]1CN(C(=O)CCc2ccccc2)C(=O)N1C(=O)OCc1ccccc1
TGI (786-0 renal): > 100 µM
TGI (A498 renal): > 100 µM
TGI (A549 NSCLC): > 100 µM
TGI (ACHN renal): > 100 µM
TGI (CAKI-1 renal): > 100 µM
TGI (CCRF-CEM leukemia): > 100 µM
TGI (COLO 205 colon): > 100 µM
TGI (DU-145 prostate): > 100 µM
TGI (EKVX NSCLC): > 100 µM
TGI (HCC-2998 colon): > 100 µM
TGI (HCT-116 colon): > 100 µM
TGI (HCT-15 colon): > 100 µM
TGI (HL-60(TB) leukemia): > 100 µM
TGI (HOP-62 NSCLC): > 100 µM
TGI (HOP-92 NSCLC): > 100 µM
TGI (HS 578T breast): > 100 µM
TGI (HT29 colon): > 100 µM
TGI (IGROV1 ovarian): > 100 µM
TGI (K-562 leukemia): > 100 µM
TGI (KM12 colon): > 100 µM
TGI (LOX IMVI melanoma): > 100 µM
TGI (M14 melanoma): > 100 µM
TGI (MALME-3M melanoma): > 100 µM
TGI (MCF7 breast): > 100 µM
TGI (MDA-MB-231 breast): > 100 µM
TGI (MDA-MB-435): > 100 µM
TGI (MDA-N): > 100 µM
TGI (MOLT-4 leukemia): > 100 µM
TGI (NCI-H226 lung): > 100 µM
TGI (NCI-H23 lung): > 100 µM
TGI (NCI-H460 lung): > 100 µM
TGI (NCI-H522 lung): > 100 µM
TGI (NCI/ADR-RES ovarian): > 100 µM
TGI (OVCAR-3 ovarian): > 100 µM
TGI (OVCAR-4 ovarian): > 100 µM
TGI (OVCAR-5 ovarian): > 100 µM
TGI (OVCAR-8 ovarian): > 100 µM
TGI (RPMI-8226 leukemia): > 100 µM
TGI (RXF 393 renal): > 100 µM
TGI (SF-268 CNS): > 100 µM
TGI (SF-295 CNS): > 100 µM
TGI (SF-539 CNS): > 100 µM
TGI (SK-MEL-2 melanoma): > 100 µM
TGI (SK-MEL-28 melanoma): > 100 µM
TGI (SK-MEL-5 melanoma): > 100 µM
TGI (SK-OV-3 ovarian): > 100 µM
TGI (SN12C renal): > 100 µM
TGI (SNB-19 CNS): > 100 µM
TGI (SNB-75 CNS): > 100 µM
TGI (SR leukemia): > 100 µM
TGI (SW-620 colon): > 100 µM
TGI (T-47D breast): > 100 µM
TGI (TK-10 renal): > 100 µM
TGI (U251 CNS): > 100 µM
TGI (UACC-257 melanoma): > 100 µM
TGI (UACC-62 melanoma): > 100 µM
TGI (UO-31 renal): > 100 µM

Cc1ccc(NC(=O)/C=C/c2ccccc2)c(C(N)=O)c1
GI50 (786-0 renal): 6.41 µM
TGI (786-0 renal): 53 µM
GI50 (A498 renal): 3.61 µM
TGI (A498 renal): 34.6 µM
GI50 (A549 NSCLC): 5.28 µM
TGI (A549 NSCLC): > 100 µM
GI50 (ACHN renal): 11 µM
TGI (ACHN renal): > 96.6 µM
GI50 (BT-549 breast): 12.5 µM
TGI (BT-549 breast): > 100 µM
GI50 (CAKI-1 renal): 6.78 µM
TGI (CAKI-1 renal): > 59.4 µM
GI50 (CCRF-CEM leukemia): 2.33 µM
TGI (CCRF-CEM leukemia): > 29.2 µM
GI50 (COLO 205 colon): 1.68 µM
TGI (COLO 205 colon): 5.93 µM
GI50 (DU-145 prostate): 3.81 µM
TGI (DU-145 prostate): > 41.9 µM
GI50 (EKVX NSCLC): 4.78 µM
TGI (EKVX NSCLC): > 100 µM
GI50 (HCC-2998 colon): 5.38 µM
TGI (HCC-2998 colon): 42.5 µM
GI50 (HCT-116 colon): 2.96 µM
TGI (HCT-116 colon): > 76.8 µM
GI50 (HCT-15 colon): 2.43 µM
TGI (HCT-15 colon): > 100 µM
GI50 (HL-60(TB) leukemia): 1.75 µM
TGI (HL-60(TB) leukemia): 6.7 µM
GI50 (HOP-62 NSCLC): 11.1 µM
TGI (HOP-62 NSCLC): > 100 µM
GI50 (HOP-92 NSCLC): 15.5 µM
TGI (HOP-92 NSCLC): > 100 µM
GI50 (HS 578T breast): 1.69 µM
TGI (HS 578T breast): 6.63 µM
GI50 (HT29 colon): 2.36 µM
TGI (HT29 colon): 30.8 µM
GI50 (IGROV1 ovarian): 4.89 µM
TGI (IGROV1 ovarian): > 56.1 µM
GI50 (K-562 leukemia): 1.06 µM
TGI (K-562 leukemia): > 100 µM
GI50 (KM12 colon): 2.44 µM
TGI (KM12 colon): 35.5 µM
GI50 (LOX IMVI melanoma): 7.87 µM
TGI (LOX IMVI melanoma): > 100 µM
GI50 (M14 melanoma): 2.12 µM
TGI (M14 melanoma): > 100 µM
GI50 (MALME-3M melanoma): 5.99 µM
TGI (MALME-3M melanoma): > 100 µM
GI50 (MCF7 breast): 3.15 µM
TGI (MCF7 breast): > 100 µM
GI50 (MDA-MB-231 breast): 5.37 µM
TGI (MDA-MB-231 breast): > 95.7 µM
GI50 (MDA-MB-435): 0.526 µM
TGI (MDA-MB-435): 2.44 µM
GI50 (MOLT-4 leukemia): 3.34 µM
TGI (MOLT-4 leukemia): > 74.1 µM
GI50 (NCI-H226 lung): 6.46 µM
TGI (NCI-H226 lung): > 100 µM
GI50 (NCI-H23 lung): 4.46 µM
TGI (NCI-H23 lung): > 100 µM
GI50 (NCI-H460 lung): 3.46 µM
TGI (NCI-H460 lung): 25.9 µM
GI50 (NCI-H522 lung): 1.89 µM
TGI (NCI-H522 lung): 9.06 µM
GI50 (NCI/ADR-RES ovarian): 2.54 µM
TGI (NCI/ADR-RES ovarian): 18.2 µM
GI50 (OVCAR-3 ovarian): 2.28 µM
TGI (OVCAR-3 ovarian): 6.68 µM
GI50 (OVCAR-4 ovarian): 9.17 µM
TGI (OVCAR-4 ovarian): > 100 µM
GI50 (OVCAR-5 ovarian): 9.68 µM
TGI (OVCAR-5 ovarian): > 100 µM
GI50 (OVCAR-8 ovarian): 7.38 µM
TGI (OVCAR-8 ovarian): > 100 µM
GI50 (PC-3 prostate): 4.07 µM
TGI (PC-3 prostate): > 100 µM
GI50 (RPMI-8226 leukemia): 2.89 µM
TGI (RPMI-8226 leukemia): > 100 µM
GI50 (RXF 393 renal): 2.67 µM
TGI (RXF 393 renal): 8.16 µM
GI50 (SF-268 CNS): 7.19 µM
TGI (SF-268 CNS): > 100 µM
GI50 (SF-295 CNS): 2.79 µM
TGI (SF-295 CNS): > 56.7 µM
GI50 (SF-539 CNS): 2.07 µM
TGI (SF-539 CNS): 6.75 µM
GI50 (SK-MEL-2 melanoma): 4.75 µM
TGI (SK-MEL-2 melanoma): 31.6 µM
GI50 (SK-MEL-28 melanoma): 3.65 µM
TGI (SK-MEL-28 melanoma): > 100 µM
GI50 (SK-MEL-5 melanoma): 1.94 µM
TGI (SK-MEL-5 melanoma): > 41.5 µM
GI50 (SK-OV-3 ovarian): 3.26 µM
TGI (SK-OV-3 ovarian): 19.1 µM
GI50 (SN12C renal): 7.76 µM
TGI (SN12C renal): > 100 µM
GI50 (SNB-19 CNS): 5.81 µM
TGI (SNB-19 CNS): > 100 µM
GI50 (SNB-75 CNS): 2.62 µM
TGI (SNB-75 CNS): 15.1 µM
GI50 (SR leukemia): 0.881 µM
TGI (SR leukemia): 20.1 µM
GI50 (SW-620 colon): 2.5 µM
TGI (SW-620 colon): > 100 µM
GI50 (T-47D breast): 5.11 µM
TGI (T-47D breast): > 74.4 µM
GI50 (TK-10 renal): 17.1 µM
TGI (TK-10 renal): > 100 µM
GI50 (U251 CNS): 3.8 µM
TGI (U251 CNS): > 100 µM
GI50 (UACC-257 melanoma): 22.5 µM
TGI (UACC-257 melanoma): > 95.3 µM
GI50 (UACC-62 melanoma): 3.44 µM
TGI (UACC-62 melanoma): > 80.8 µM
GI50 (UO-31 renal): 10.3 µM
TGI (UO-31 renal): > 60 µM
